According to paper doi:10.1101/2022.03.05.483025v1 (biorxiv, 2022):
Where two headings read alike, the source gives them in different places.

Experiments:
[1] = biological target: T1, SARS-CoV-2 Mpro (Severe acute respiratory syndrome coronavirus 2, UniProt P0DTD1); experiment: rhodamine-based substrate peptide activity assay; format: biochemical
[2] = biological target: T2, MERS-CoV Mpro (Betacoronavirus England 1, UniProt K9N7C7); experiment: biochemical
[3] = biological target: T3, HCoV-HKU1 Mpro (Human coronavirus HKU1 (isolate N1), UniProt P0C6X2); experiment: biochemical
Target sequence in this assay (P0C6X2 3335-3637): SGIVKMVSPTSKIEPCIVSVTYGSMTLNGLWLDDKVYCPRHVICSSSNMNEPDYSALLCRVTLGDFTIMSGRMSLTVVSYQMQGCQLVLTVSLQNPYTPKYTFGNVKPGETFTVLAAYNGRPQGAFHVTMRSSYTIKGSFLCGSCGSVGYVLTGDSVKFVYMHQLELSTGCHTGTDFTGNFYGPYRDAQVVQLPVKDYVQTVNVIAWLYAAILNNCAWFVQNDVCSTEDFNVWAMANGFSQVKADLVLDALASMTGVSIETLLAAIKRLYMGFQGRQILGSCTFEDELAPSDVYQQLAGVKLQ

[4] = biological target: T4, HCoV-229E Mpro (Human coronavirus 229E, UniProt P0C6X1); experiment: biochemical
Target sequence in this assay (P0C6X1 2966-3267): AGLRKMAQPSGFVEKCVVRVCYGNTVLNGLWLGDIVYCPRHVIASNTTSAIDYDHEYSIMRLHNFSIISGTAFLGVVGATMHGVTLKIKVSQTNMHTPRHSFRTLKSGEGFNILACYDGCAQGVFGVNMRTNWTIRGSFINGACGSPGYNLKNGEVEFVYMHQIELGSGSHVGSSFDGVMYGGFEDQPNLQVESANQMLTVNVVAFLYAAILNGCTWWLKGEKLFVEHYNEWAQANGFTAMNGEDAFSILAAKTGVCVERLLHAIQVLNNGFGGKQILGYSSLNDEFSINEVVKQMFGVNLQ

[5] = biological target: T1, SARS-CoV-2 Mpro; experiment: biochemical
[6] = biological target: T5, HCoV-NL63 Mpro (Human coronavirus NL63, UniProt P0C6X5); experiment: biochemical
Target sequence in this assay (P0C6X5 2940-3242): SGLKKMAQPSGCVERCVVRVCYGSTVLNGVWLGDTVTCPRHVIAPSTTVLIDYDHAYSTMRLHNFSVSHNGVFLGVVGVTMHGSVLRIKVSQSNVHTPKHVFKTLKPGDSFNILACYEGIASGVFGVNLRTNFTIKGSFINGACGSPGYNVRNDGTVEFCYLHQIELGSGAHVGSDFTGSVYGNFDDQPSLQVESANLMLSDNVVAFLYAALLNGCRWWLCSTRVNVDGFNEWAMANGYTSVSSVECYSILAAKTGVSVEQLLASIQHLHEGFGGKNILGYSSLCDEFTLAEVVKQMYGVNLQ

[7] = biological target: T6, PorCoV-HKU15 Mpro (Porcine coronavirus HKU15, UniProt H9BQY4); settings: covalent
[8] = biological target: T1, SARS-CoV-2 Mpro; experiment: Mpro substrate activity assay; format: biochemical
[9] = biological target: T2, MERS-CoV Mpro; experiment: biochemical; remark: listed apart in the source
[10] = biological target: T1, SARS-CoV-2 Mpro; experiment: biochemical; remark: listed apart in the source
[11] = biological target: T6, PorCoV-HKU15 Mpro; settings: covalent; remark: listed apart in the source
[12] = biological target: T5, HCoV-NL63 Mpro; experiment: biochemical; remark: listed apart in the source
Target sequence in this assay (P0C6X5 2940-3242 limits assumed): as the sequence (P0C6X5 2940-3242) above

[13] = biological target: T4, HCoV-229E Mpro; experiment: biochemical; remark: listed apart in the source
Target sequence in this assay (P0C6X1 2966-3267 limits assumed): as the sequence (P0C6X1 2966-3267) above

[14] = biological target: T3, HCoV-HKU1 Mpro; experiment: biochemical; remark: listed apart in the source
Target sequence in this assay (P0C6X2 3335-3637 limits assumed): as the sequence (P0C6X2 3335-3637) above

[15] = biological target: T3, HCoV-HKU1 Mpro; experiment: RapidFire MS substrate peptide activity assay; format: biochemical
Target sequence in this assay (P0C6X2 3335-3637): as above

[16] = biological target: T7, SARS-CoV-1 Mpro (Severe acute respiratory syndrome-related coronavirus, UniProt P0C6X7); experiment: biochemical
[17] = biological target: T5, HCoV-NL63 Mpro; experiment: RapidFire MS substrate peptide activity assay; format: biochemical
Target sequence in this assay (P0C6X5 2940-3242): as the sequence (P0C6X5 2940-3242) above

[18] = biological target: HCoV-OC43 Mpro (Human coronavirus OC43, UniProt P0C6X6); experiment: RapidFire MS substrate peptide activity assay; format: biochemical
[19] = biological target: T4, HCoV-229E Mpro; experiment: RapidFire MS substrate peptide activity assay; format: biochemical
Target sequence in this assay (P0C6X1 2966-3267): as the sequence (P0C6X1 2966-3267) above

[20] = biological target: T1, SARS-CoV-2 Mpro; experiment: RapidFire MS substrate peptide activity assay; format: biochemical
[21] = biological target: avian infectious bronchitis virus (IBV) Mpro (Avian infectious bronchitis virus (strain Beaudette), UniProt P0C6Y1); experiment: RapidFire MS substrate peptide activity assay; format: biochemical
[22] = biological target: T7, SARS-CoV-1 Mpro; experiment: biochemical; remark: listed apart in the source
[23] = biological target: T2, MERS-CoV Mpro; experiment: biochemical; remark: listed apart in the source
[24] = read-out: PM-2-20A (trans), covalent
[25] = read-out: hidden head, 8th column, covalent
[26] = read-out: HW-1-87A (trans), covalent
[27] = read-out: PM-2-27A (trans), covalent

T2 sequence (K9N7C7 3248-3553 limits assumed): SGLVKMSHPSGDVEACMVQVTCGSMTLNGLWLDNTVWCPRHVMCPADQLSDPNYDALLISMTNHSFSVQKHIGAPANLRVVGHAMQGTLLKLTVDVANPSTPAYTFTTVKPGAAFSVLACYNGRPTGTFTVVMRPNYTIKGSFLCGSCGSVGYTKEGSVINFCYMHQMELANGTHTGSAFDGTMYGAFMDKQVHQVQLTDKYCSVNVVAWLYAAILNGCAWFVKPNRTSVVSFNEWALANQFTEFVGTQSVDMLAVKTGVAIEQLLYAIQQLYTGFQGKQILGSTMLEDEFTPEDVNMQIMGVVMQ
T6 sequence (H9BQY4 2509-2811 limits assumed): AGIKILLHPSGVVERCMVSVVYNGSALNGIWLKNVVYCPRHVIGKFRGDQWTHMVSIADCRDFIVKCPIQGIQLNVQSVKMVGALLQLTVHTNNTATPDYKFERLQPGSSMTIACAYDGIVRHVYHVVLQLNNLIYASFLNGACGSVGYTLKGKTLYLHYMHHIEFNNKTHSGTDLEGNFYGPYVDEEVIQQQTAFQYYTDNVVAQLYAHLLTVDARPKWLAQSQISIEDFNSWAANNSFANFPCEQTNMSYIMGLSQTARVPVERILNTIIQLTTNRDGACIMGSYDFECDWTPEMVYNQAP
Sequence of HCoV-OC43 Mpro (P0C6X6 3247-3549): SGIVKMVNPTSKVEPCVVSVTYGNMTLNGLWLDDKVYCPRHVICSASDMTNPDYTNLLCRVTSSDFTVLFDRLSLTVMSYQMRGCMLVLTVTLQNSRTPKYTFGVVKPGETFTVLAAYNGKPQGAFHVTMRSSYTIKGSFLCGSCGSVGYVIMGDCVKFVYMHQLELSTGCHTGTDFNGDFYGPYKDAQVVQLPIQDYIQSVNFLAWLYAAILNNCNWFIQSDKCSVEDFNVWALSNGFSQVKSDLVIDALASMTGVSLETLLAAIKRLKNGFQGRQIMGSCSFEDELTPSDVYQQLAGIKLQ
Sequence of avian infectious bronchitis virus (IBV) Mpro (P0C6Y1 2780-3086): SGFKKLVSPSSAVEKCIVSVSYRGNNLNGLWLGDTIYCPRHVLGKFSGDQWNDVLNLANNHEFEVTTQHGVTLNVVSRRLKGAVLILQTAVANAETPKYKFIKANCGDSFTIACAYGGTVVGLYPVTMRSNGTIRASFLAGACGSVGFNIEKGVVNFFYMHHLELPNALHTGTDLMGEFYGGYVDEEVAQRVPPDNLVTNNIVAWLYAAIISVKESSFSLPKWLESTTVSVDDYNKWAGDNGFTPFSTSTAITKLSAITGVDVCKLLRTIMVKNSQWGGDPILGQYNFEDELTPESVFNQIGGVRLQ

## O=C(CCl)N1N=C(c2ccccc2)[C@H](c2ccccc2)[C@@H]1c1ccccc1 (relative stereo) [PM-2-020B, cis-PM-02-020B]
[1]
  IC50: 62 nM
[2]
  IC50: 2800 nM
[3]
  IC50: 200 nM
[4]
  IC50: 23 nM
[5]
  IC50: 5.3 nM
[6]
  IC50: 350 nM
[7]; read-out: PM-2-20B (cis)
  IC50: 1100 nM

## O=C(CCl)N1N=C(c2ccccc2)[C@H](c2ccccc2)[C@@H]1c1ccc2nccnc2c1 (relative stereo) [HW-1-187B, cis-HW-1-187B]
[1]
  IC50: 22 nM
[2]
  IC50: 1300 nM
[3]
  IC50: 16 nM
[4]
  IC50: 2.3 nM
[5]
  IC50: 1.4 nM
[6]
  IC50: 56 nM
[7]; read-out: HW-1-187B (cis)
  IC50: 6300 nM

## O=C(CCl)N1N=C(c2ccccc2)C[C@H]1c1cccc2nccnc12 [(S)-EN82]
[8]
  IC50: 2700 nM

## O=C(CCl)N1N=C(c2ccccc2)[C@H](c2ccccc2)[C@H]1c1ccccc1 (relative stereo) [PM-2-20A (trans)]
[9]; [24]
  IC50: 3700 nM
[10]; [24]
  IC50: 28 nM
[11]; read-out: PM-2-20A (trans)
  IC50: 4800 nM
[12]; [24]
  IC50: 67 nM
[13]; [24]
  IC50: 3.6 nM
[14]; [24]
  IC50: 36 nM

## O=C(CCl)N1N=C(c2cccc(Cl)c2)CC1c1cccc2nccnc12 (stereo not drawn) [LEB-2-172]
[9]
  IC50: 38 nM
[10]
  IC50: 0.89 nM
[12]
  IC50: 11 nM
[13]
  IC50: 5.5 nM
[14]
  IC50: 0.96 nM

## C=CS(=O)(=O)N1N=C(c2cc(Cl)ccc2F)[C@H](c2ccccc2)[C@@H]1c1ccc2nccnc2c1 (relative stereo) [PM-2-071B]
[1]
  IC50: 91 nM

## O=C(CCl)N1N=C(c2ccccc2)CC1c1ccnc2[nH]ccc12 (stereo not drawn) [NJH-1-159]
[9]; [25]
  IC50: 960 nM
[10]; [25]
  IC50: 20 nM
[11]; read-out: hidden head, 8th column
  IC50: 9300 nM
[12]; [25]
  IC50: 110 nM
[13]; [25]
  IC50: 19 nM
[14]; [25]
  IC50: 8.9 nM

## C=CS(=O)(=O)N1N=C(c2cc(Cl)ccc2F)C(c2ccccc2)C1c1ccc2nccnc2c1 (stereo not drawn) [PM-2-071]
[15]
  IC50: < 2 nM
[16]
  IC50: < 1000 nM
[17]
  IC50: < 1000 nM
[18]
  IC50: < 2 nM
[19]
  IC50: < 1000 nM
[20]
  IC50: < 2 nM
[21]
  IC50: < 1000 nM

## O=C(CCl)N1N=C(c2ccccc2)[C@H](c2ccccc2)[C@H]1c1ccc2nccnc2c1 (relative stereo) [HW-1-87A (trans)]
[9]; [26]
  IC50: 340 nM
[10]; [26]
  IC50: 85 nM
[11]; read-out: HW-1-87A (trans)
  IC50: 4900 nM
[12]; [26]
  IC50: 140 nM
[13]; [26]
  IC50: 30 nM
[14]; [26]
  IC50: 40 nM

## O=C(CCl)N1N=C(c2cc(Cl)ccc2F)[C@H](c2ccccc2)[C@@H]1c1ccc2nccnc2c1 (relative stereo) [HW-2-010B]
[1]
  IC50: 14 nM

## O=C(CCl)N1N=C(c2ccccc2)[C@H](c2ccccc2)[C@H]1c1cccc2nccnc12 (relative stereo) [PM-2-27A (trans)]
[9]; [27]
  IC50: 3300 nM
[10]; [27]
  IC50: 110 nM
[11]; read-out: PM-2-27A (trans)
  IC50: 5400 nM
[12]; [27]
  IC50: 92 nM
[13]; [27]
  IC50: 46 nM
[14]; [27]
  IC50: 60 nM

## O=C(CCl)N1N=C(c2cc(F)cc(Cl)c2)CC1c1cccc2nccnc12 (stereo not drawn) [LEB-3-004]
[9]
  IC50: 100 nM
[10]
  IC50: 1.6 nM
[11]; read-out: LEB-3-004
  IC50: 2100 nM
[12]
  IC50: 25 nM
[13]
  IC50: 5.3 nM
[14]
  IC50: 2.3 nM

## C=CS(=O)(=O)N1N=C(c2cc(Cl)ccc2F)[C@@H](c2ccccc2)[C@H]1c1ccc2nccnc2c1 [(S,S)-PM-2-071, (S,S)-enantiomer of PM-2-071B]
[1]
  IC50: 35 nM

## O=C(CCl)N1N=C(c2ccccc2)CC1c1cccc2nccnc12 (racemic) [EN82]
[22]
  IC50: 59 nM
[1]
  IC50: 91 nM
[23]
  IC50: 560 nM

## O=C(CCl)N1N=C(c2ccccc2)CC1c1cccnc1 (stereo not drawn) [NJH-1-147]
[9]
  IC50: 7200 nM
[10]
  IC50: 58 nM
[11]; read-out: hidden head, 7th column
  IC50: 11000 nM
[12]
  IC50: 330 nM
[13]
  IC50: 54 nM
[14]
  IC50: 26 nM
